Source: patent US9783510B2, “Small molecule mediated transcriptional induction of E-cadherin” (Vanderbilt University, priority 2014, dated 2017)

How the values were obtained:
[1] = test system: E-cadherin mRNA in H520 cells; assay: qPCR of E-cadherin specific mRNA, H520 cells; type: cell-based; conditions: H520, 10 μM, 6 hours post-treatment, relative to DMSO
HMEC-1 cells = assay: WST-1 metabolism (proliferation) assay, HMEC-1 cells; type: cell-based, human; conditions: WST-1, 10 μM, 24 h and 48 h
Protocol: Proliferation, migration, and tubular formation are essential characteristics of endothelial cells for the generation of new blood vessels. […] The lack of effect on cell proliferation is consistent with the lack of effect of compounds of similar class on the proliferation of SW620 and H520 cells (Stoops, S. L., et al. (2011) ACS Chemical Biology 6, 452-465). A scratch wound healing assay was performed on cultured HMEC-1 cells. Confluent monolayers of HMEC-1 cells were disrupted mechanically by scraping them with a sterile pipette tip. Within the observation period of 24 hours, Compound 13 treatment antagonized HMEC-1 monolayer wound healing (FIG. 12).
Referring to FIG. 11, HMEC-1 cells were treated with DMSO or 10 μM Compound 13 (259Y) using 96 wells plate, WST-1 was added (10 μL per well, incubate 37° C. for one hour, read at 450 nm reference 562 nm) at 24 h and 48 h. The blank control was a well with media but NO CELLS+wst-1. Each data point is a biological replicate that is the average of three technical replicates minus the average of three blank wells.

Compound: O=C(NCCCNC(=O)c1cccnc1O)c1cc(-c2ccccc2)on1 [Compound 13, N-(3-(2-hydroxynicotinamido)propyl)-5-phenylisoxazole-3-carboxamide]
- increase of E-cadherin specific mRNA [1]: 20 fold
- HMEC-1 cell proliferation (HMEC-1 cells): no significant effect
